How the values were obtained:
human H3 receptor = target: T1, human H3 receptor (Homo sapiens, UniProt Q9Y5N1); test: Human H3 radioligand binding ([3H]-N-alpha-methylhistamine, CHO cell membranes, SPA); conditions: Table B, binding constant as letter class
T1 construct: expressed in transfected cells
Method in brief: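 CHO cell membranes expressing human H3 (10 μg protein/well) incubated 4 h at room temperature, in the dark, with ~1 nM [3H]-N-alpha-methylhistamine, compounds (0.01 nM-30 μM) and SPA beads in 50 mM Tris HCl pH 7.4, 5 mM MgCl2, 0.1% BSA. Non-specific binding defined with 10 μM clobenpropit.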

[1] = target: T2, rat histamine H3 receptor (Rattus norvegicus, UniProt Q9QYN8); test: Rat H3 radioligand binding ([3H]-N-alpha-methylhistamine, CHO-A3 cell membranes, SPA); conditions: Table B, binding constant as letter class; read-out: rat H3 Ki
T2 construct: encoding the entire 445-amino-acid rat histamine H3 receptor; expressed in transfected cells
Method in brief: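 Membranes from CHO-A3 cells stably expressing rat H3 (10 μg protein) incubated 4 h at room temperature in 50 mM Tris-HCl pH 7.4, 5 mM MgCl2, 0.1% BSA with ~1 nM [3H]-N-alpha-methylhistamine and compound (0.01 nM-30 μM). Bound radioligand read by scintillation proximity; nonspecific binding with 10 μM clobenpropit.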

T2 sequence (Q9QYN8 whole entry): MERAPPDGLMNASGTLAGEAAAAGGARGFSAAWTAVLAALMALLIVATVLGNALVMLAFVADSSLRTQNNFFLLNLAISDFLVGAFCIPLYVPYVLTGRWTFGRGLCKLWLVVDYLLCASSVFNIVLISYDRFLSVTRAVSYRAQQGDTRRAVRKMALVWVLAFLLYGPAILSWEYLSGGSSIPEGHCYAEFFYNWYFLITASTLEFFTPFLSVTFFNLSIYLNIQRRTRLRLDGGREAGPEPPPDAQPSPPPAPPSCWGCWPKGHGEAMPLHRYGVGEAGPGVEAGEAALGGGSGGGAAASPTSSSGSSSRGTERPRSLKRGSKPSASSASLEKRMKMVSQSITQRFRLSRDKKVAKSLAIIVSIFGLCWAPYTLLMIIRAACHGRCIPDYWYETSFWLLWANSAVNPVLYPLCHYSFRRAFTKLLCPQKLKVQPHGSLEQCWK
T1 sequence (Q9Y5N1 whole entry): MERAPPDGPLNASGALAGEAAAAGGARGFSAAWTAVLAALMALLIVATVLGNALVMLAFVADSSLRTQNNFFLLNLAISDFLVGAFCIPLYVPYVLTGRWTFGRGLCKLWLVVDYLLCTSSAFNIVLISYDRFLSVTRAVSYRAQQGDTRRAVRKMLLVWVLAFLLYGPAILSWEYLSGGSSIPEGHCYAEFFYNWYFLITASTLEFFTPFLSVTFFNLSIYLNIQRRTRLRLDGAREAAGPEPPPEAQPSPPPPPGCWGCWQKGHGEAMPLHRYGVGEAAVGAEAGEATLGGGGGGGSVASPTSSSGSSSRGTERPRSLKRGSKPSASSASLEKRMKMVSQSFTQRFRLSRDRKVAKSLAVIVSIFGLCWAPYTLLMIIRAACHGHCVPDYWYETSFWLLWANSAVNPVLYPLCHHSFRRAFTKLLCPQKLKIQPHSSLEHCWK

Row | SMILES | Ki (human H3 receptor) | Ki [1] | melting point
1 | C[C@@H]1CCCN1CCCOc1ccc(C2=NN(CC(F)(F)F)C(=O)CC2)cc1 [Example 168, 6-{4-[3-((R)-2-Methyl-pyrrolidin-1-yl)-propoxy]-phenyl}-2-(2,2,2-trifluoro-ethyl)-4,5-dihydro-2H-pyridazin-3-one] | 0.1 to 100 nM | 0.1 to 100 nM | 76 to 78 °C
2 | O=C1CCC(c2ccc(OCCCN3CCCCC3)cc2)=NN1CC(F)(F)F [Example 169, 6-{4-[3-piperidin-1-yl-propoxy]-phenyl}-2-(2,2,2-trifluoro-ethyl)-4,5-dihydro-2H-pyridazin-3-one] | 0.1 to 100 nM | 0.1 to 100 nM | 87 to 89 °C
3 | C[C@@H]1CCCN1CCCOc1ccc(-c2ccc(=O)n(CC(F)(F)F)n2)cc1 [Example 170, 6-{4-[3-((R)-2-Methyl-pyrrolidin-1-yl)-propoxy]-phenyl}-2-(2,2,2-trifluoro-ethyl)-2H-pyridazin-3-one] | 0.1 to 100 nM | 0.1 to 100 nM | 121 to 123 °C
4 | O=c1ccc(-c2ccc(OCCCN3CCCCC3)cc2)nn1CC(F)(F)F [Example 171, 6-[4-(3-Piperidin-1-yl-propoxy)-phenyl]-2-(2,2,2-trifluoro-ethyl)-2H-pyridazin-3-one] | 0.1 to 100 nM | 0.1 to 100 nM | 128 to 130 °C
5 | C[C@@H]1CCCN1CCCOc1ccc(C2=NNC(=O)C3CCC23)cc1 (stereo partly drawn) [Example 173, 5-{4-[3-((R)-2-Methyl-pyrrolidin-1-yl)-propoxy]-phenyl}-3,4-diaza-bicyclo[4.2.0]oct-4-en-2-one] | 0.1 to 100 nM | 0.1 to 100 nM | 218 to 220 °C
6 | O=C1NN=C(c2ccc(OC3CCN(C4CCC4)CC3)cc2)C2CCCC12 (stereo not drawn) [Example 174, 4-[4-(1-Cyclobutyl-piperidin-4-yloxy)-phenyl)-2,4a,5,6,7,7a-hexahydro-cyclopenta[d]pyridazin-1-one] | 0.1 to 100 nM | 0.1 to 100 nM | > 255 °C (dec.)
7 | C[C@@H]1CCCN1CCCOc1ccc(C2=NNC(=O)C3CCCC23)cc1 (stereo partly drawn) [Example 175, 4-{4-[3-((R)-2-Methyl-pyrrolidin-1-yl)-propoxy]-phenyl}-2,4a,5,6,7,7a-hexahydro-cyclopenta[d]pyridazin-1-one] | 0.1 to 100 nM | 0.1 to 100 nM | 218 to 219 °C
8 | O=c1[nH]nc(-c2ccc(OC3CCN(C4CCC4)CC3)cc2)c2c1CCC2 [Example 176, 4-[4-(1-Cyclobutyl-piperidin-4-yloxy)-phenyl]-2,5,6,7-tetrahydro-cyclopenta[d]pyridazin-1-one] | 0.1 to 100 nM | 0.1 to 100 nM | 210 to 213 °C
9 | O=C1CCC(c2ccc(OC3CCN(C4CCC4)CC3)nc2)=NN1C1CCC1 [Example 177, 2-Cyclobutyl-6-[6-(1-cyclobutyl-piperidin-4-yloxy)-pyridin-3-yl]-4,5-dihydro-2H-pyridazin-3-one] | 0.1 to 100 nM | 0.1 to 100 nM | 146 to 149 °C
10 | C[C@@H]1CCCN1CCCOc1ccc(C2=NNC(=O)C(C)(C)C2)cc1 [Example 179, 4,4-Dimethyl-6-{4-[3-((R)-2-methyl-pyrrolidin-1-yl)-propoxy]-phenyl}-4,5-dihydro-2H-pyridazin-3-one] | 0.1 to 100 nM | 0.1 to 100 nM | 140 to 142 °C
11 | C[C@@H]1CCCN1CCCOc1ccc(C2=NNC(=O)CC2)cc1F [Example 180, 6-{3-Fluoro-4-[3-((R)-2-methyl-pyrrolidin-1-yl)-propoxy]-phenyl}-4,5-dihydro-2H-pyridazin-3-one] | 0.1 to 100 nM | 0.1 to 100 nM | 132 to 133 °C
12 | O=C1CCC(c2ccc(OCCCN3CCCCC3)c(F)c2)=NN1 [Example 181, 6-[3-Fluoro-4-(3-piperidin-1-yl-propoxy)-phenyl]-4,5-dihydro-2H-pyridazin-3-one] | 0.1 to 100 nM | 101 to 500 nM | 164 to 166 °C

Source: US8586588B2, “Aryl pyridazinone derivatives and their use as H3 receptor ligands” (Cephalon, Inc., priority 2006, dated 2013)
